Laboratory results from patent US11981953B2, “Method to screen compounds for antifungal activity and pharmaceutical compositions and methods to treat fungal diseases by inhibiting spore germination” (WISCONSIN ALUMNI RESEARCH FOUNDATION, priority 2018, dated 2024).

Tests used:
[1] = system: Aspergillus Fumigatus (AF293); experiment: Aspergillus fumigatus MIC on conidia; format: cell-based; conditions: testing performed on conidia
Experimental: Conidia at a final concentration of 2×10^4 cells were incubated in RPMI, 0.33 M MOPS, and 2% glucose at pH 7 at varying concentrations of inhibitors, with a final volume of 200 μL.

[2] = system: JEC20-GFPxJEC21-GFP spores in mouse lung; experiment: In vivo germination (cells recovered from mouse lungs 8 hours post infection); parameters: species or system Cryptococcus neoformans; conditions: prophylactic 4 mg/kg/day for three days; cells recovered 8 hours post infection
Experimental: Female mice, 8- to 10-week-old C57BL/6J (Jackson Laboratory) female mice (3 mice per group) were used. Mice were dosed with either 4mg/kg/day or 1×PBS (50 μL) for three (3) consecutive days. Mice were intranasally infected with 2×10^6 JEC20-GFPxJEC21-GFP spores, strains described in Walsh et al., 2018. After 8 hours post-infection, mice were sacked and lavaged with 0.05% TirtonX in 1×PBS. Lavage suspension underwent a series of treatments and washes, in order: red blood cell lysis (ACK lysing buffer, 2 mL, 5 minutes), formaldehyde fixation (4%, 500 μL, 30 minutes) and calcofluor white staining (25 μg/mL, 20 μL for 1 minute). Cells (50-100 per mouse) were imaged, and identified as Cryptococcus neoformans cells based on green fluorescent signal or cyan staining from calcofluor staining. Cells surface area and aspect ratio were measured in ImageJ and cells were classified as spores, intermediates, or yeast based on size and shapes parameters used in the quantitative germination assay.
In vivo spore germination has never been characterized mainly due to technical hurdles. Using a novel assay, Cryptococcus neoformans cells were recovered from prophylactically treated, spore-infected mouse lungs 8 hours post infection. […] Based on size and shape of the cells, the level of in vivo spore germination was quantified.

[3] = system: JEC20×JEC21 yeast or spores in mouse lung; experiment: Fungal burden animal studies (mouse lung colony-forming units); format: in vivo, Cryptococcus neoformans; conditions: for Lung fungal burden (colony-forming units) versus PBS-treated mice: 4 mg/kg/day intranasal for three days from 1-day post-infection, lungs day 4
Experimental: All yeast cells were cultured overnight in YPD, washed and diluted to 5×10^6 cells. For JEC20 and JEC21, 2.5×10^6 cells of each were combined. Spores were cultured as previously described and diluted to 2×10^6 cells. All experiments were performed on 8- to 10-week old C57BL/6J (Jackson Laboratory, Bar Harbor, Me., USA) female mice (5 mice per group). All mice were infected intranasally with a total of 50 μL. All dosing was performed with 4 mg/kg/day or 1×PBS for three (3) days either prior to infection or 1-day post-infection. Mice were sacked day-4 post-infection and lungs were collected, processed, and fungal burden was assessed.
Pentamidine is a successful inhibitor of Cryptococcus neoformans yeast replication in vitro. For repurposing potential, it is important to determine drug efficacy in vivo. For this purpose, the ability of pentamidine to lower the fungal burden in mouse lungs infected by both spores and yeast was determined. One-day post-infection intranasal dosing was begun at 4 mg/kg/day and the mice were treated for three consecutive days. On the fourth day post-infection, lungs were collected and fungal burden was determined. […] See FIG. 8A and FIG. 8B, respectively.
Pentamidine is a successful inhibitor of spore germination in vitro. It is important, though, to determine drug efficacy in vivo. Therefore, the ability of pentamidine to inhibit germination of spores in mouse lungs was determined. […], mice were infected with JEC20×JEC21 spores and 4-days post infection, mouse lungs were collected and lung fungal burden was determined.

[4] = system: Cryptococcus neoformans spores (JEC20 x JEC21); experiment: Quantitative germination assay (microfluidic devices, cell size and shape); format: cell-based
Experimental: All germination assays are based on Barkal et al., 2016. Briefly, microfluidic devices were loaded with 1×10^5 spores, and at 0 hours, SD media with drug of interest, were added to the sample. Spores were allowed to germinated at 30° C. in a humidified chamber and cells were monitored every two (2) hours for 16 hours. Each assay was performed in two (2) individual wells with three (3) field of views acquired from each well. All images were analyzed as previously described based on cell shape and size. Population ratio of spores, intermediate, and yeast cells were determined. Error bars in plots are based on variation between all fields of view acquired. […] After the 16-hour experiment, samples were plated on YPD and allowed to grow at 30° C. to determine if drugs were completely germicidal or not based on lack of growth. If assays were unable to be performed in microfluidic devices, the […] spores were incubated in identical conditions outside of PDMS devices and only loaded into devices for image acquisition.

SMILES: N=C(N)c1ccc(OCCCCCOc2ccc(C(=N)N)cc2)cc1 [Pentamidine]
- Ability to inhibit Aspergillus fumigatus [1]: unable to inhibit
- Level of in vivo spore germination (spore, intermediate, yeast percent) [2]: higher spore percent and a lower yeast percent
- Lung fungal burden after prophylaxis versus 1×PBS ([3]; 4 mg/kg/day for three consecutive days prior to infection with JEC20×JEC21 spores, lungs 4-days post infection, FIG. 9, p<0.01): successful in decreasing spore-mediated lung burden
- Lung fungal burden (colony-forming units) versus PBS-treated mice ([3]; spore-infected C57BL/6J mice, FIG. 8B, p<0.01): significantly lower fungal burdens in the lung
- Lung fungal burden (colony-forming units) versus PBS-treated mice ([3]; yeast-infected C57BL/6J mice, FIG. 8A, p<0.05): significantly lower fungal burdens in the lung
- Germicidal activity ([4]; 50 μg/mL): showed germicidal activity
- Spore germination over a range of concentrations ([4]; as concentrations increased): spore germination became slower
- Germicidal activity ([4]; lower concentration): not germicidal
- Spore escape from inhibition (words) ([4]; yeast population increase = escape, listed as pentamidine): no individual spores were able to escape inhibition
